# Counter-ions that a name gives are not always drawn. Like-named read-outs stand apart in the source and are kept apart here.
# What was measured:
# Format in all cases: in vivo
# [1] = tested on: dogs with alveolar bone loss induced by spontaneously developed periodontal disease; assay: Periodontal parameter assessment (CAL, PPD, bleeding) in dogs with periodontal disease; conditions: CTX-1 responders; Day-90 vs Day-0
# Experimental: The present study was performed on 10 Beagle dogs suffering from alveolar bone loss induced by spontaneously developed periodontal disease. All dogs were treated with MIV-701 besylate salt for minimum 30 day and maximum 90 days, depending on the tolerance at intermediate visits. The product is administrated to the dog by its owner at home, once a day with a meal.
# There were two treatment groups: • Group A (5 dogs) with a dose of 25 mg/kg. • Group B (5 dogs) with a dose of 50 mg/kg.
# The examination was performed at visit V2 (Day 0) and visit V5 (90t 3 days).
# At visit V2 (Day 0) and V5 (90 ± 3 days). the Investigator evaluated the following parameters for each tooth: • Periodontal probing depth (PPD) - measured as the distance from the gingival margin to the bottom of the pocket using a graduated periodontal probe of Investigator's choice. The sulcus/pocket was measured circumferentially around the whole tooth and valued of 3 to 6 places, depending on the tooth localization (Figure 11). Measurements was done in millimeters (mm) and rounded to the nearest lower value. The mean PPD value of these measurements per tooth was calculated. • Clinical attachment loss (CAL) - measured as the distance from the cemento-enamel-junction to the bottom of the pocket using a periodontal probe of the Investigator choice. CAL was measured in 3 to 6 sites per tooth depending on the tooth localization (Figure 11). Measurements was done in millimeters (mm) and rounded to the nearest lower value (Kortegaard et al. 2014). The mean CAL value of these measurements per tooth will be calculated. • Bleeding Probing Index - assessed at each site of PPD and CAL measurement. Depending on the absence or presence of bleeding within 10 second following probing of the tooth, BPI scored either as 0 or 1 respectively. The mean BIP value was calculated per tooth.
# At visit V5 (90t 3 days), the Investigator assessed PPD, CAL and BoP in only 3 selected teeth for the study and recorded it in PERIODONTAL PARAMETERS FORM.
# [2] = Safety of repeated oral administration in healthy cats
# Experimental: (§1) MIV-701 besylate salt was administered once daily for 14 days to 4 healthy cats at three increasing doses: 2 mg/kg, 10 mg/kg and 50 mg/kg.
# (§2) The three doses were consecutively administered for 14 days with a >5-day washout period between two dose levels.
# (§3) Each treatment period can be resumed as follows: • J0 (T+24h): first administration, withdrawal of blood samples for pharmacokinetic and plasma CTX-1 assessment (pre-dose and 0.5h, 1h, 2h, 4h, 8h and 24h after first drug administration), pre-dose blood samples for hematology and clinical biochemistry (baseline values for safety assessment). • J5 ([…]) and J8: pre-dose blood samples. • J13: last administration, withdrawal of plasma samples for pharmacokinetic and plasma CTX-1 assessment (pre-dose and 0.5h, 1h, 2h, 4h, 8h and 24h after last drug administration), pre-dose sampling for hematology and clinical biochemistry (baseline values for safety assessment). • J15 to J≥19: washout period.
# [3] = Plasma pharmacokinetic of MIV-701 after single and repeated oral administration of MIV-701 besylate salt in healthy cats; conditions: for Cmax at 312 h / Tmax at 312 h / AUC(0-inf) at 312 h / AUC(0-t) at 312 h / half-life at 312 h / Cmax / Tmax at 0 h / AUC(0-inf) / AUC(0-t) / half-life: cat; for AUC(0-inf) at 312 h / AUC(0-inf): read-out: AUC(0-infini) (converted); for AUC(0-t) at 312 h / AUC(0-t): read-out: AUC(0-tfinal) (converted); for half-life at 312 h / half-life: read-out: T1/2 elimination (converted)
# Experimental: as §1, §2, §3
# After centrifugation of blood samples plasma aliquots were stored at -20°C._After thawing on ice, 30 µL of plasma were transferred into 1.5 ml microtube containing 270 µL acetonitrile. Microtubes were then vigorously stirred and then centrifuged (12000 rpm, 10 min, 4°C) and the supernatant was transferred in Matrix tube for LC-MS/MS analysis.
# A calibration curve (9 points, 3 to 30 000 nM) was obtained by spiking plasma samples from naive cats with appropriate quantities of Compound I.
# Equipment: LC-MS/MS Acquity I Class-Wevo TQD (Waters®): - Acquity I Class ∘ Column: Waters® Acquity BEH C8, 50*2.1mm, 1.7 µm (40°C) ∘ Mobile phase: • ▪ A: Ammonium Formate 5mM, pH=3.8 • ▪ B: Ammonimuformate 5 mM in CH3CN 5% aqueous, pH=3.8 ∘ Injection volume: 1 µL ∘ Speed: 600 µL/min ∘ Gradient: […]
# - Xevo TQD • ∘ Source temperature: 150°C • ∘ Desolvatation temperature: 600°C • ∘ Cone gaz speed: 50L/h • ∘ Desolvatation gaz speed: 1200L/h - Analytes MS characteristics
# Terminal elimination half-life (t1/2) was calculated according to the following formula: T1/2 elimination = ln(2)/kel [formula] kel= slope of ln(C)=f(temps) calculated on the last points of the curves (elimination phase)/ MIV-701 exposure (Area Under the Curve; AUCt) was calculated according to trapezoidal method accroding to the following formula: AUCt−>inf = [C]t /kel [formula]
# [4] = Safety of 14-day repeated oral administration in healthy beagle dogs
# Experimental: Compound Ib besylate salt (referred to as MIV-701 besylate salt) was administered once daily for 14 days to 3 healthy beagle dogs at three different doses: 1 mg/kg, 10 mg/kg and 100 mg/kg.
# The doses were consecutively administered for 14 days with a >5-day washout period between two dose levels.
# Each treatment period can be resumed as follows: • J0 (T+24h): first Compound Ib besylate salt administration, withdrawal of blood samples for pharmacokinetic and plasma CTX-1 assessment (pre-dose and 0.5h, 1h, 2h, 4h, 8h and 24h after drug administration), pre-dose blood samples for hematology and clinical biochemistry (baseline values for safety assessment). • J1 to J12: pre-dose blood samples • J13: last Compound Ib besylate salt administration, withdrawal of plasma samples for pharmacokinetic and plasma CTX-1 assessment (pre-dose and 0.5h, 1h, 2h, 4h, 8h and 24h after drug administration), pre-dose sampling for hematology and clinical biochemistry (baseline values for safety assessment). • J15-J≥19: washout period.
# [5] = plasma MIV-701, oral 2 mg/kg once daily, Day 13 (repeated)
# [6] = plasma MIV-701, oral 2 mg/kg, Day 0 (single)
# [7] = plasma MIV-701, oral 10 mg/kg once daily, Day 13 (repeated)
# [8] = plasma MIV-701, oral 10 mg/kg, Day 0 (single)
# [9] = plasma MIV-701, oral 50 mg/kg, Day 0 (single)
smiles,measurement,setting,value
"CC(C)C[C@H](NC(=O)c1ccc(-c2csc(N3CCN(C)CC3)n2)cc1)C(=O)N1C[C@H](F)[C@H]2OCC(O)(O)[C@H]21 [MIV-701 besylate salt, N-[(S)-1-((3aS,6S,6aS)-6-Fluoro-S-oxo-hexahydro-furo[3,2-b]pyrrole-4-carbony)-3-methyl-butyl]-4-[2-(4-methyl-piperazin-1-yl)-thiazol-4-yl]-benzamide benzenesulphonate]",Clinical Attachment Loss (CAL),[1],significantly improved
same,Gingival Bleeding Index (GBI),[1],not modified
same,Periodontal Probing Depth (PPD),[1],significantly improved
same,adverse or irreversible effect,[2]; oral 2 mg/kg/day and 10 mg/kg/day during 14 days,did not induce any adverse or irreversible effect
same,adverse signs,"[2]; oral 50 mg/kg/day during 4 days, led to treatment withdrawal, reversible",induced some digestive and behavioral degradations
same,plasma exposure (AUC) at D13 higher than AUC at D0,[3]; 2 mg/kg,1.2 folds
same,plasma exposure (AUC) at D13 higher than AUC at D0,[3]; 10 mg/kg,1.9 folds
same,Cmax at 312 h,[3]; [5],141 nM
same,Tmax at 312 h,[3]; [5],2 h
same,AUC(0-inf) at 312 h,[3]; [5],0.984 µM·h
same,AUC(0-t) at 312 h,[3]; [5],0.972 µM·h
same,half-life at 312 h,[3]; [5],3.9 h
same,Cmax,[3]; [6],122 nM
same,Tmax at 0 h,[3]; [6],2 h
same,AUC(0-inf),[3]; [6],0.811 µM·h
same,AUC(0-t),[3]; [6],0.808 µM·h
same,half-life,[3]; [6],2.9 h
same,Cmax at 312 h,[3]; [7],663 nM
same,Tmax at 312 h,[3]; [7],0.5 h
same,AUC(0-inf) at 312 h,[3]; [7],5.3 µM·h
same,AUC(0-t) at 312 h,[3]; [7],5.07 µM·h
same,half-life at 312 h,[3]; [7],5.7 h
same,Cmax,[3]; [8],249 nM
same,Tmax at 0 h,[3]; [8],2 h
same,AUC(0-inf),[3]; [8],2.85 µM·h
same,AUC(0-t),[3]; [8],2.78 µM·h
same,half-life,[3]; [8],4.6 h
same,Cmax,[3]; [9],3890 nM
same,Tmax at 0 h,[3]; [9],2 h
same,AUC(0-inf),[3]; [9],34.8 µM·h
same,AUC(0-t),[3]; [9],33.6 µM·h
same,half-life,[3]; [9],4.9 h
same,Kel (4-24h),[3]; [5],-0.179 h⁻¹
same,Kel (4-24h),[3]; [6],-0.236 h⁻¹
same,Kel (4-24h),[3]; [7],-0.122 h⁻¹
same,Kel (4-24h),[3]; [8],-0.152 h⁻¹
same,Kel (4-24h),[3]; [9],-0.142 h⁻¹
same,tolerance,"[4]; oral once daily for 14 days, 1, 10 and 100 mg/kg",well tolerated at all doses
same,signs of toxicity,"[4]; oral once daily for 14 days, regardless of the dose",No obvious signs of toxicity
